Marks after values point to notes of the source that are not given here.
Key:
[1] = system: HeLA (cervical carcinoma); assay: In vitro cytotoxicity (MTT); settings: for IC50: Homo sapiens, HeLa, read-out: IC50 HeLA
Procedure: (§1) Background control wells contained the same volume as the complete culture medium. […] Samples at various concentrations were added to the microplate and incubated for another 48 h. Cell viability was determined by 3(4,5-dimethylthiazol-2-yl)-2-5-diphenyl tetrazolium bromide (MTT) assay (Sig-ma-Aldrich). The reagent was dissolved in phosphate-buffered saline at 5 mg/mL and filtered to sterilize and remove the small amount of insoluble residue present in some batches of MTT. […] Subsequently, dimethyl sulfoxide (100 µL; Merck, Germany) was added to dissolve the resulting formazan by sonication. The plates were read on a microplate reader (Molecular Devices, CA, USA) using a test wavelength of 550 nm and a reference wavelength of 650 nm. XTT assay for suspension cells was used for MOLT-3 cells.

[2] = system: T47-D (hormone-dependent breast cancer); assay: In vitro cytotoxicity (MTT); settings: for IC50: Homo sapiens, T47D, read-out: IC50 T47-D
Procedure: as §1

[3] = system: A549 (lung carcinoma); assay: In vitro cytotoxicity (MTT); settings: for IC50: Homo sapiens, A549, 48 h, read-out: IC50 A549
Procedure: as §1

[4] = system: HL-60 (promyeloblast); assay: In vitro cytotoxicity (MTT); settings: for IC50: Homo sapiens, HL-60, 48 h, read-out: IC50 HL-60
Procedure: as §1

[5] = system: MDA-MB-231 (hormone-independent breast cancer); assay: In vitro cytotoxicity (MTT); settings: for IC50: Homo sapiens, MDA-MB-231, 48 h, read-out: IC50 MDA-MB-231
Procedure: as §1

[6] = system: HepG2 (hepatocarcinoma); assay: In vitro cytotoxicity (MTT); settings: for IC50: Homo sapiens, HepG2, 48 h, read-out: IC50 HepG2
Procedure: as §1

[7] = system: HuCCA-1 (cholangiocarcinoma); assay: In vitro cytotoxicity (MTT); settings: for IC50: Homo sapiens, HuCC-A1, 48 h, read-out: IC50 HuCCA-1
Procedure: as §1

[8] = system: S102 (Thai liver cancer); assay: In vitro cytotoxicity (MTT); settings: for IC50: Homo sapiens, read-out: IC50 S102
Procedure: as §1

[9] = system: MOLT-3 (acute lymphoblastic leukemia); assay: In vitro cytotoxicity (XTT); settings: for IC50: Homo sapiens, MOLT-3, 48 h, read-out: IC50 MOLT-3
Procedure: as §1

[10] = system: H69AR (lung cancer, multidrug resistant); assay: In vitro cytotoxicity (MTT); format: cell-based, human; settings: for IC50: Homo sapiens, H69AR, mean ± standard error
Procedure: Background control wells contained the same volume as the complete culture medium. […] The reagent was dissolved in phosphate-buffered saline at 5 mg/mL and filtered to sterilize and remove the small amount of insoluble residue present in some batches of MTT. […] Subsequently, dimethyl sulfoxide (100 µL; Merck, Germany) was added to dissolve the resulting formazan by sonication. The plates were read on a microplate reader (Molecular Devices, CA, USA) using a test wavelength of 550 nm and a reference wavelength of 650 nm.

[11] = system: MRC-5 (normal embryonic lung cell); assay: In vitro cytotoxicity (MTT), normal cell line; settings: for IC50: Homo sapiens, MRC5, 48 h, read-out: IC50 MRC-5
Procedure: as §1

[12] = target: T1, HIV-1 RT (Human immunodeficiency virus type 1 group M subtype B, UniProt P03366); assay: HIV-1 RT inhibition assay (Roche RT kit, colorimetric ELISA); format: biochemical; settings: for inhibition at 1 µM: read-out: Inhibitory activities (%) against HIV-1 RT
T1 construct: The reaction mixture consisted of template/primer complex, 2′-deoxy-nucleotide-5′-triphosphates (dNTPs), and RT enzyme in lysis buffer; purchased Roche Applied Science, Mannheim, Germany
Description: The inhibition assay of HIV-1 RT was accomplished using the template/primer hybrid poly(A) × oligo(dT)15, digoxigenin (DIG)- and biotin-labeled nucleotides, an antibody to DIG that was conjugated to peroxidase (anti-DIG-POD), and the peroxidase substrate ABTS. The quantities of DIG- and biotin-labeled dUTP incorporated into DNA represent t HIV-1 RT activity. The HIV-RT inhibition assay was implemented using an RT assay kit (Roche Applied Science, Mannheim, Germany), and the procedures for assaying RT inhibition were performed as described in the kit protocol. […] The reaction mixture consisted of template/primer complex, 2′-deoxy-nucleotide-5′-triphosphates (dNTPs), and RT enzyme in lysis buffer with or without an inhibitor. […] The biotin-labeled dNTPs that were incorporated in the template bound to streptavidin because of the presence of RT. Unbound dNTPs were washed using a wash buffer, and anti-DIG-POD was added to the MTP. The DIG-labeled dNTPs incorporated in the template bound to the anti-DIG-POD antibody. Unbound anti-DIG-POD was also washed elaborately five times using a wash buffer. Finally, the peroxide substrate (ABST) was added to the MTP. A colored reaction product emerged during the cleavage of the substrate catalyzed by […]. The absorbance of the sample was measured at the optical density (OD) at 490 nm using the MTP (enzyme-linked immunosorbent assay [ELISA]) reader. The percentage inhibitory activities of the RT inhibitors were calculated by comparing with that of the sample without an inhibitor. The resulting color intensity was directly proportional to the RT activity. Percentage inhibitory values were calculated using the following formula: Inhibition (%) = [1–(OD value with RT and inhibitor−OD value without RT and inhibitors)/(OD value without inhibitors with RT−OD value without RT and inhibitors)] × 100.

[13] = at 50 µg/mL, inactive (IC50 ≥ 50 µg/mL)
[14] = normal cell line, at 50 µg/mL, inactive (IC50 ≥ 50 µg/mL)

Compound	IC50 ([1]; 48 h) [µM]	IC50 ([2]; 48 h) [µM]	IC50 [4] [µM]	IC50 [5] [µM]	IC50 [6] [µM]	IC50 [7] [µM]	IC50 ([8]; 48 h) [µM]	IC50 [9] [µM]	IC50 ([10]; 48 h) [µM]	%C percentage cytotoxicity HeLA [1, 13]	%C percentage cytotoxicity T47-D [2, 13]	%C percentage cytotoxicity A549 [3, 13]	%C percentage cytotoxicity HL-60 [4, 13]	%C percentage cytotoxicity MDA-MB-231 [5, 13]	%C percentage cytotoxicity HepG2 [6, 13]	%C percentage cytotoxicity HuCCA-1 [7, 13]	%C percentage cytotoxicity S102 [8, 13]	%C percentage cytotoxicity H69AR ([10]; human, 48 h, 50 µg/mL)	%C percentage cytotoxicity MRC-5 [11, 14]	inhibition at 1 µM [12] [%]	also measured
O=C1Nc2ccc(Cl)cc2[C@@](C#CC2CC2)(C(F)(F)F)O1 [EFV, efavirenz, reference compound]	46.2 ± 1.3	59.2 ± 0.8	33.7 ± 1.1	77.7 ± 5.6	86.6 ± 3.9	59.6 ± 2.4	93.5 ± 4.7	24.6 ± 1.2	105 ± 3.4												IC50 [3]: 60.2 ± 1.8 µM; IC50 [11]: 95.6 ± 6 µM
Cc1cc(/C=C/C#N)cc(C)c1Oc1cc(Nc2ccc(C#N)cc2)nc2ccccc12 [Compound 9b-trans, 4-(4′-(2″-(E, Z)-cyanovinyl)-2′,6′-dimethyl-phenoxy)-2-(4″-cyanophenyl)-aminoquinoline]										%C = 38.0 ^c	%C = 0.0 ^c	%C = 8.0 ^c	%C = 17.0 ^c	%C = 24.9 ^c	%C = 42.9 ^c	%C = 8.0 ^c	%C = 0.0 ^c	%C = 14.0 ^c	%C = 28.4 ^c	35.9 ± 3.1	%C percentage cytotoxicity MOLT-3 [9, 13]: %C = 19.0 ^c
COc1cc([C@@H]2c3cc4c(cc3[C@@H](O[C@@H]3O[C@@H]5CO[C@@H](C)O[C@H]5[C@H](O)[C@H]3O)[C@H]3COC(=O)[C@H]23)OCO4)cc(OC)c1O [Etoposide, etoposide, reference compound]			0.8 ± 0.1		49.9 ± 1.1			0.03													
Cc1cc(/C=C/C#N)cc(C)c1Oc1cc(Nc2ccc(C#N)cn2)nc2ccccc12 [Compound 10b-trans, 4-(4′-(2″-(E, Z)-cyanovinyl)-2′,6′-dimethyl-phenoxy)-2-(5″-cyanopyridin-2″ylamino)-aminoquinoline]										%C = 10.0 ^c	%C = 0.0 ^c	%C = 1.0 ^c	%C = 31.0 ^c	%C = 17.0 ^c	%C = 1.0 ^c	%C = 0.0 ^c	%C = 3.1 ^c	%C = 0.0 ^c	%C = 0.0 ^c	32.4 ± 3.5	%C percentage cytotoxicity MOLT-3 [9, 13]: %C = 2.0 ^c
Cc1cc(/C=C\C#N)cc(C)c1Oc1cc(Nc2ccc(C#N)cc2)nc2ccccc12 [Compound 9b-cis, 4-(4′-(2″-(E, Z)-cyanovinyl)-2′,6′-dimethyl-phenoxy)-2-(4″-cyanophenyl)-aminoquinoline]	97.2 ± 5.1							52.8 ± 2.1			%C = 5.0 ^c	%C = 1.0 ^c	%C = 42.0 ^c	%C = 10.0 ^c	%C = 9.8 ^c	%C = 10.0	%C = 0.0 ^c	%C = 0.0 ^c	%C = 0.0 ^c	32.5 ± 2.8	
Cc1cc(/C=C\C#N)cc(C)c1Oc1cc(Nc2ccc(C#N)cn2)nc2ccccc12 [Compound 10b-cis, 4-(4′-(2″-(E, Z)-cyanovinyl)-2′,6′-dimethyl-phenoxy)-2-(5″-cyanopyridin-2″ylamino)-aminoquinoline]										%C = 0.0 ^c	%C = 0.0 ^c	%C = 0.0 ^c	%C = 5.0 ^c	%C = 0.0 ^c	%C = 0.0 ^c	%C = 0.0 ^c	%C = 0.0 ^c	%C = 0.0 ^c	%C = 0.0 ^c	29.4 ± 3.6	%C percentage cytotoxicity MOLT-3 [9, 13]: %C = 11.0 ^c
4,4′-di-(2’,6’-Dimethyl-4’-formylphenoxy)-2,2′-biquinoline [Compound 7b]																					Inhibitory activities (%) against HIV-1 RT ([12]; 1 µM, mean ± standard error): 30.3 ± 2.3%
Cc1ccnc2c1NC(=O)c1cccnc1N2C1CC1 [NVP, nevirapine, reference compound]																				53.4 ± 2.7	%C percentage cytotoxicity HeLA ([1]; human, 48 h, 50 µg/mL): %C = 34.0 ^c; %C percentage cytotoxicity T47-D ([2]; human, 48 h, 50 µg/mL): %C = 14.0 ^c; %C percentage cytotoxicity A549 ([3]; human, 48 h, 50 µg/mL): %C = 18.0 ^c; %C percentage cytotoxicity HL-60 ([4]; human, 48 h, 50 µg/mL): %C = 3.0 ^c; %C percentage cytotoxicity MDA-MB-231 ([5]; human, 48 h, 50 µg/mL): %C = 8.9 ^c; %C percentage cytotoxicity HepG2 ([6]; human, 48 h, 50 µg/mL): %C = 15.4 ^c; %C percentage cytotoxicity HuCCA-1 ([7]; human, 48 h, 50 µg/mL): %C = 11.0 ^c; %C percentage cytotoxicity S102 ([8]; human, 48 h, 50 µg/mL): %C = 3.0 ^c; %C percentage cytotoxicity MOLT-3 ([9]; human, 48 h, 50 µg/mL): %C = 29.0 ^c; %C percentage cytotoxicity H69AR [10, 13]: %C = 8.0 ^c; %C percentage cytotoxicity MRC-5 ([11]; human, 48 h, 50 µg/mL): %C = 1.0 ^c
COc1cccc2c1C(=O)c1c(O)c3c(c(O)c1C2=O)C[C@@](O)(C(=O)CO)C[C@@H]3O[C@H]1C[C@H](N)[C@H](O)[C@H](C)O1 [Doxorubicin, reference compound]	0.4	1.2	0.1	2.5 ± 0.1	0.6	0.9	2.2	0.02	34.3 ± 0.1												IC50 [3]: 0.6 µM; IC50 [11]: 3.1 ± 0.5 µM
Cc1cc(/C=C/C#N)cc(C)c1Nc1ccnc(Nc2ccc(C#N)cc2)n1 [RPV, rilpivirine, reference compound]	11.3 ± 1.2	15 ± 1.3	11.5 ± 0.8	25.3 ± 2.9	87.4 ± 0.1	61.3 ± 1.7	22.5 ± 1.2	4.3 ± 0.5	57.1 ± 2			%C = 42.0 ^c							%C = 14.4 ^c	97.1 ± 0.9	cytotoxicity toward normal embryonic lung (MRC-5) cells, in words [11]: very low cytotoxicity; IC50 [12]: 0.06 µM

Reference: article PMC8781960, “Structural Basis of 2-Phenylamino-4-phenoxyquinoline Derivatives as Potent HIV-1 Non-Nucleoside Reverse Transcriptase Inhibitors” (Molecules, 2022)
